What was measured:
Assay in all cases: relative viability (nuclei count vs DMSO), 5 days (fraction); higher = more cells survive
[1] = test system: LCLC-103H
Procedure, shortened: (§1)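 The day after seeding in 1536-well plates, lung cancer cell lines were treated by pin tool with a single drug, or with a fixed anchor-drug dose together with five library-drug doses (not always all listed) in √10 steps. After 5 days, a combined fix-and-stain solution (final 0.05% Triton X-100, 1% formaldehyde, 1 ug/ml Hoechst) was added. Nuclei counted on 4× images gave relative viability as treated counts over vehicle counts, reported as the median of duplicate plates.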

[2] = test system: LXF-289
Procedure, shortened: as §1

[3] = test system: NCI-H1355
Procedure, shortened: as §1

[4] = test system: NCI-H1563
Procedure, shortened: as §1

[5] = test system: NCI-H1651
Procedure, shortened: as §1

[6] = test system: NCI-H1755
Procedure, shortened: as §1

[7] = test system: NCI-H1792
Procedure, shortened: as §1

[8] = test system: NCI-H1915
Procedure, shortened: as §1

[9] = test system: NCI-H2347
Procedure, shortened: as §1

[10] = test system: NCI-H3122
Procedure, shortened: as §1

[11] = test system: NCI-H322M
Procedure, shortened: as §1

[12] = test system: NCI-H441
Procedure, shortened: as §1

[13] = test system: NCI-H460
Procedure, shortened: as §1

[14] = test system: NCI-H520
Procedure, shortened: as §1

[15] = test system: NCI-H596
Procedure, shortened: as §1

[16] = test system: NCI-H661
Procedure, shortened: as §1

[17] = test system: NCI-H727
Procedure, shortened: as §1

[18] = test system: PC-14
Procedure, shortened: as §1

[19] = test system: RERF-LC-KJ
Procedure, shortened: as §1

[20] = test system: SK-MES-1
Procedure, shortened: as §1

COc1cc2nccc(Oc3ccc(NC(=O)Nc4cc(C)on4)c(Cl)c3)c2cc1OC [Tivozanib] + C[C@]1(O)C[C@@H](c2nc(-c3ccc4ccc(-c5ccccc5)nc4c3)c3c(N)nccn32)C1 [Linsitinib] (partner 1 µM)
relative viability ([1]; first compound 0.005 µM): 1.01
relative viability ([1]; first compound 0.01581 µM): 0.959
relative viability ([1]; first compound 0.05 µM): 1.07
relative viability ([1]; first compound 0.1581 µM): 1.21
relative viability ([1]; first compound 0.5 µM): 1.12
relative viability ([2]; first compound 0.005 µM): 0.974
relative viability ([2]; first compound 0.01581 µM): 0.929
relative viability ([2]; first compound 0.05 µM): 0.945
relative viability ([2]; first compound 0.1581 µM): 1.02
relative viability ([2]; first compound 0.5 µM): 0.983
relative viability ([3]; first compound 0.005 µM): 0.776
relative viability ([3]; first compound 0.01581 µM): 0.809
relative viability ([3]; first compound 0.05 µM): 0.895
relative viability ([3]; first compound 0.5 µM): 0.844
relative viability ([4]; first compound 0.005 µM): 1.19
relative viability ([4]; first compound 0.01581 µM): 1.32
relative viability ([4]; first compound 0.05 µM): 1.24
relative viability ([4]; first compound 0.1581 µM): 1.12
relative viability ([4]; first compound 0.5 µM): 1.22
relative viability ([5]; first compound 0.005 µM): 0.929
relative viability ([5]; first compound 0.01581 µM): 0.988
relative viability ([5]; first compound 0.05 µM): 0.87
relative viability ([5]; first compound 0.1581 µM): 0.949
relative viability ([5]; first compound 0.5 µM): 0.963
relative viability ([6]; first compound 0.005 µM): 0.968
relative viability ([6]; first compound 0.01581 µM): 0.918
relative viability ([6]; first compound 0.05 µM): 1.05
relative viability ([6]; first compound 0.1581 µM): 1.02
relative viability ([6]; first compound 0.5 µM): 0.96
relative viability ([7]; first compound 0.005 µM): 0.535
relative viability ([7]; first compound 0.01581 µM): 0.581
relative viability ([7]; first compound 0.05 µM): 0.534
relative viability ([7]; first compound 0.1581 µM): 0.698
relative viability ([7]; first compound 0.5 µM): 0.592
relative viability ([8]; first compound 0.005 µM): 1.08
relative viability ([8]; first compound 0.01581 µM): 1.14
relative viability ([8]; first compound 0.05 µM): 1.12
relative viability ([8]; first compound 0.1581 µM): 1.07
relative viability ([8]; first compound 0.5 µM): 1.05
relative viability ([9]; first compound 0.005 µM): 0.711
relative viability ([9]; first compound 0.01581 µM): 0.897
relative viability ([9]; first compound 0.05 µM): 0.966
relative viability ([9]; first compound 0.1581 µM): 1.1
relative viability ([9]; first compound 0.5 µM): 0.92
relative viability ([10]; first compound 0.005 µM): 1.1
relative viability ([10]; first compound 0.01581 µM): 1.04
relative viability ([10]; first compound 0.05 µM): 1
relative viability ([10]; first compound 0.1581 µM): 1.19
relative viability ([10]; first compound 0.5 µM): 1.06
relative viability ([11]; first compound 0.005 µM): 0.942
relative viability ([11]; first compound 0.01581 µM): 0.961
relative viability ([11]; first compound 0.05 µM): 0.989
relative viability ([11]; first compound 0.1581 µM): 0.92
relative viability ([11]; first compound 0.5 µM): 0.825
relative viability ([12]; first compound 0.005 µM): 0.588
relative viability ([12]; first compound 0.01581 µM): 0.56
relative viability ([12]; first compound 0.05 µM): 0.559
relative viability ([12]; first compound 0.1581 µM): 0.481
relative viability ([12]; first compound 0.5 µM): 0.559
relative viability ([13]; first compound 0.005 µM): 0.783
relative viability ([13]; first compound 0.01581 µM): 0.806
relative viability ([13]; first compound 0.05 µM): 0.858
relative viability ([13]; first compound 0.1581 µM): 0.871
relative viability ([13]; first compound 0.5 µM): 0.733
relative viability ([14]; first compound 0.005 µM): 0.838
relative viability ([14]; first compound 0.01581 µM): 0.966
relative viability ([14]; first compound 0.05 µM): 0.883
relative viability ([14]; first compound 0.1581 µM): 0.935
relative viability ([14]; first compound 0.5 µM): 0.821
relative viability ([15]; first compound 0.005 µM): 1.1
relative viability ([15]; first compound 0.01581 µM): 1.03
relative viability ([15]; first compound 0.05 µM): 0.953
relative viability ([15]; first compound 0.1581 µM): 0.952
relative viability ([15]; first compound 0.5 µM): 1.01
relative viability ([16]; first compound 0.005 µM): 0.525
relative viability ([16]; first compound 0.01581 µM): 0.564
relative viability ([16]; first compound 0.05 µM): 0.498
relative viability ([16]; first compound 0.1581 µM): 0.707
relative viability ([16]; first compound 0.5 µM): 0.652
relative viability ([17]; first compound 0.005 µM): 0.304
relative viability ([17]; first compound 0.01581 µM): 0.256
relative viability ([17]; first compound 0.05 µM): 0.244
relative viability ([17]; first compound 0.5 µM): 0.357
relative viability ([18]; first compound 0.005 µM): 0.939
relative viability ([18]; first compound 0.01581 µM): 0.957
relative viability ([18]; first compound 0.05 µM): 1.06
relative viability ([18]; first compound 0.1581 µM): 1.01
relative viability ([18]; first compound 0.5 µM): 1.01
relative viability ([19]; first compound 0.005 µM): 0.828
relative viability ([19]; first compound 0.01581 µM): 0.855
relative viability ([19]; first compound 0.05 µM): 0.901
relative viability ([19]; first compound 0.1581 µM): 0.92
relative viability ([19]; first compound 0.5 µM): 0.88
relative viability ([20]; first compound 0.005 µM): 1.08
relative viability ([20]; first compound 0.01581 µM): 1.07
relative viability ([20]; first compound 0.05 µM): 1.05
relative viability ([20]; first compound 0.1581 µM): 1.14
relative viability ([20]; first compound 0.5 µM): 1.07

— the supplement of paper PMC10307832
